# Earlier results, collected in patent publication US20240108699A1 (priority 2022, published 2024).
# Conditions: in vivo
substance,measurement,value
Botulinum toxin complex A [BoNT-A],time for which effects are maintained,three to six
